Measurements published in patent US20220274947A1, “NOVEL HETEROARYL-TRIAZOLE COMPOUNDS AS PESTICIDES” (Bayer Aktiengesellschaft, priority 2019, published 2022).

Assays:
Format in all cases: in vivo
Diabrotica balteata = Diabrotica balteata spray test; settings: 168 h, wheat seeds, larvae, after 7 days, read-out: activity (efficacy: 100% means all seedlings have grown up like in the untreated, uninfected control); for pest or weed control at 32 µg/disc, 100 g/ha: application rate 100 g/ha (=32 μg/well); for pest or weed control at 160 µg/disc, 500 g/ha: application rate 500 g/ha (=160 μg/well)
Method: Diabrotica balteata—Spray Test Solvent: 78.0 parts by weight of acetone • • 1.5 parts by weight of dimethylformamide Emulsifier: alkylarylpolyglycol ether
To produce a suitable preparation of active compound, 1 part by weight of active compound is mixed with the stated amount of solvent, and the concentrate is diluted with water, containing an emulsifier concentration of 1000 ppm, to the desired concentration. Further test concentrations are prepared by dilution with emulsifier containing water.
Soaked wheat seeds (Triticum aestivum) are placed in a multiple well plate filled with agar and some water and are incubated for 1 day to germinate (5 seeds per well). The germinated wheat seeds are sprayed with a test solution containing the desired concentration of the active ingredient. Afterwards each unit is infected with 10-20 larvae of the banded cucumber beetle (Diabrotica balteata).
After 7 days efficacy in % is determined. 100% means all the seedlings have grown up like in the untreated, uninfected control; 0% means none of the seedlings have grown.

[1] = system: Musca domestica strain WHO—N; test: Musca domestica test (MUSCDO surface treatment & contact assay); settings: surface concentration 4 mg/m^2, glazed tile, exposure 30 minutes, 24 hours after contact, read-out: efficacy (mortality)
Method: Musca domestica Test (MUSCDO Surface Treatment & Contact Assay) Solvent: Aceton+2000 ppm rapeseed oil methyl ester (RME)
In order to produce a sufficient, active ingredient containing solution it is necessary to solve the test compound in the solvent-mix (acetone at 2 mg/ml/RME 2000 ppm). This solution is pipetted onto a glazed tile and after evaporation of the acetone, adult flies of the species Musca domestica strain WHO—N are placed onto the dried surface. The exposure time is 30 minutes. Mortality in percent (%) is determined 24 hours after contact of the insects to the treated surface. 100% mortality means that all tested insects are dead, whereas 0% means that no insect died.

Rhipicephalus microplus [2] = test: Rhipicephalus (Boophilus) microplus injection test (BOOPMI Inj); settings: 168 h, injection into adult engorged female ticks, egg deposition after 7 days, read-out: activity (efficacy: 100% means all eggs are infertile); for pest or weed control at 0.004 mg: application rate 4 μg/tick; for pest or weed control at 0.02 mg: application rate 20 μg/tick
Method: Rhipicephalus (Boophilus) Microplus—Injection Test (BOOPMI Inj)
Solvent: dimethyl sulfoxide
To produce a suitable preparation of active compound, 10 mg of active compound are dissolved in 0.5 mL solvent, and the concentrate is diluted with solvent to the desired concentration.
Five adult engorged female ticks (Rhipicephalus microplus) are injected with 1 μL compound solution into the abdomen. The ticks are transferred into replica plates and incubated in a climate chamber.
After 7 days egg deposition of fertile eggs is monitored. Eggs where fertility is not visible are stored in a climate chamber till hatching after about 42 days. An efficacy of 100% means all eggs are infertile; 0% means all eggs are fertile.

Rhipicephalus microplus [3] = test: Rhipicephalus (Boophilus) microplus in-vitro contact test, larval cattle tick, strain Parkhurst (BOOPMI Cont); settings: application rate 5 μg/cm^2 (=500 g/ha), tick larvae, after 48 hours, read-out: activity (efficacy: 100% means all larvae are dead or moribund)
Method: Rhipicephalus (Boophilus) Microplus—In-Vitro Contact Tests Larval Cattle Tick (Strain Parkhurst, Resistant Against Synthetic Pyrethroids) (BOOPMI Cont)
9 mg compound is solved in 1 mL acetone and diluted with acetone to the desired concentration. 250 μL of the test solution is filled in 25 mL glass test tubes and homogeneously distributed on the inner walls by rotation and tilting on a shaking device (2 h at 30 rpm). With a compound concentration of 900 ppm, an inner surface of 44.7 cm^2 and a homogeneous distribution, a dose of 5 μg/cm^2 is achieved.
After the solvent has evaporated, each test tube is filled with 20-50 cattle tick larvae (Rhipicephalus microplus), closed with a perforated lid and incubated in a horizontal position at 85% relative humidity and 27° C. in an incubator. After 48 hours efficacy is determined. The larvae are patted on the ground of the tubes and negative geotactic behavior is recorded.
An efficacy of 100% means all larvae are dead or moribund; 0% means no larvae are dead or moribund.

Rhipicephalus sanguineus = Rhipicephalus sanguineus in-vitro contact test, adult brown dog ticks (RHIPSA Cont); settings: 48 h, after 48 hours, read-out: activity (efficacy: 100% means all ticks are dead or moribund); for pest or weed control at 5 µg/cm2, 500 g/ha: application rate 5 μg/cm^2 (=500 g/ha); for pest or weed control at 1 µg/cm2, 100 g/ha: application rate 1 μg/cm^2 (=100 g/ha)
Method: Rhipicephalus sanguineus-In-Vitro Contact Tests with Adult Brown Dog Ticks ([…] Cont) 9 mg compound is solved in 1 mL acetone and diluted with acetone to the desired concentration. 250 μL of the test solution is filled in 25 mL glass test tubes and homogeneously distributed on the inner walls by rotation and tilting on a shaking device (2 h at 30 rpm). […] After 48 hours efficacy is determined. The ticks are patted on the ground of the tubes and are incubated on a heating plate at 45-50° C. for at most 5 minutes. Immotile or uncoordinated moving ticks, which are not able to escape the heat by climbing upwards, are marked as dead or moribund.

Spodoptera frugiperda = Spodoptera frugiperda spray test; settings: in Zea mays, 168 h, read-out: activity (mortality)
Method: Spodoptera Fruaiperda—Spray Test
Solvent: 78.0 parts by weight acetone • 1.5 parts by weight dimethylformamide Emulsifier: alkylarylpolyglycol ether
To produce a suitable preparation of active compound, 1 part by weight of active compound is mixed with the stated amount of solvents and is diluted with water, containing an emulsifier concentration of 1000 ppm, to the desired concentration. Further test concentrations are prepared by dilution with emulsifier containing water.
Maize (Zea mays) leaf sections are sprayed with a preparation of the active ingredient of the desired concentration. Once dry, the leaf sections are infested with fall armyworm larvae (Spodoptera frugiperda).
After 7 days mortality in % is determined. 100% means all caterpillars have been killed and 0% means none of the caterpillars have been killed.

Myzus persicae = Myzus persicae oral test; settings: 120 h, read-out: activity (mortality)
Method: Myzus persicae—Oral Test Solvent: 100 parts by weight acetone
To produce a suitable preparation of active compound, 1 part by weight of active compound is mixed with the stated amount of solvent, and the concentrate is diluted with water to the desired concentration.
50 μL compound solution is filled in microtiter plates and 150 μL IPL41 insect medium (33%+15% sugar) is added to obtain a total volume of 200 μL per well. Afterwards the plates are sealed with parafilm through which a mixed population of the green peach aphid (Myzus persicae) can suck on the compound preparation.
After 5 days mortality in % is determined. 100% means all aphids have been killed and 0% means none of the aphids have been killed.

Ctenocephalides felis = Ctenocephalides felis oral test (CTECFE Oral); settings: 48 h, read-out: activity (mortality)
Method: Ctenocephalides felis—Oral Test (CTECFE Oral) Solvent: dimethyl sulfoxide
To produce a suitable preparation of active compound, 10 mg of active compound are dissolved in 0.5 mL solvent, and the concentrate is diluted with cattle blood to the desired concentration.
Approximately 20 adult unfed cat fleas (Ctenocephalides felis) are placed in flea chambers. The blood chamber, sealed with parafilm on the bottom, are filled with cattle blood supplied with compound solution and placed on the gauze covered top of the flea chamber, so that the fleas are able to suck the blood. The blood chamber is heated to 37° C. whereas the flea chamber is kept at room temperature.
After 2 days mortality in % is determined. 100% means all the fleas have been killed; 0% means none of the fleas have been killed.

[4] = system: Aedes aegypti strain MONHEIM; test: Aedes aegypti test (AEDSAE surface treatment & contact assay); settings: exposure 30 minutes, 24 hours after contact, read-out: efficacy (mortality); for mortality at 20 mg/m2: surface concentration 20 mg/m^2, glazed tile
Method: Aedes aegypti Test (AEDSAE Surface Treatment & Contact Assay) Solvent: Aceton+2000 ppm rapeseed oil methyl ester (RME)
In order to produce a sufficient, active ingredient containing solution it is necessary to solve the test compound in the solvent-mix (acetone at 2 mg/ml/RME 2000 ppm). This solution is pipetted onto a glazed tile and after evaporation of the acetone, adult mosquitoes of the species Aedes aegypti strain MONHEIM are placed onto the dried surface. The exposure time is 30 minutes. Mortality in percent (%) is determined 24 hours after contact of the insects to the treated surface. 100% mortality means that all tested insects are dead, whereas 0% means that no insect died.

| SMILES | pest or weed control at 32 µg/disc, 100 g/ha (Diabrotica balteata) | pest or weed control at 0.004 mg (Rhipicephalus microplus [2]) | pest or weed control at 0.02 mg (Rhipicephalus microplus [2]) | pest or weed control at 5 µg/cm2 (Rhipicephalus microplus [3]) | pest or weed control at 5 µg/cm2, 500 g/ha (Rhipicephalus sanguineus) | mortality at 100 g/ha (Spodoptera frugiperda) | mortality at 4 ppm (Myzus persicae) | pest or weed control at 1 µg/cm2, 100 g/ha (Rhipicephalus sanguineus) | other results |
| --- | --- | --- | --- | --- | --- | --- | --- | --- | --- |
| C[C@H](NC(=O)c1cc(Cl)cc(OC(F)(F)F)c1)c1nc(C2CC2)nn1-c1ccc(C#N)cn1 [I-33] | 100% | 100% | 100% | 100% |  |  |  |  | mortality at 4 mg/m2 [1]: 80 to 100% |
| CC(NC(=O)c1cc(Br)cc(C(F)(F)F)c1)c1nc(Cl)nn1-c1ccc(C#N)cn1 (stereo not drawn) [I-40] | 100% | 100% | 100% | 100% | 100% | 100% |  |  |  |
| CC(NC(=O)c1cncc(C(F)(F)F)c1)c1nc(Br)nn1-c1ccc(C#N)cn1 (stereo not drawn) [I-50] |  |  |  | 100% |  |  | 100% |  |  |
| COc1nc([C@H](C)NC(=O)c2cc(OC(F)(F)F)cc(C(F)F)c2)n(-c2ccc(C#N)cn2)n1 [I-63] | 100% |  |  | 100% |  | 100% | 100% |  |  |
| C[C@H](NC(=O)c1cc(Cl)cc(OC(F)(F)F)c1)c1ncnn1-c1cc(NC(=O)c2ccc(F)cc2)ccn1 [II-20] |  | 100% | 100% |  |  |  |  |  | mortality at 100 ppm (Ctenocephalides felis): 100% |
| Cc1nc([C@H](C)NC(=O)c2cc(Cl)cc(OC(F)(F)F)c2)n(-c2cc(C#N)ccn2)n1 [II-34] | 100% | 100% | 100% | 100% | 100% | 100% |  | 100% | pest or weed control at 160 µg/disc, 500 g/ha (Diabrotica balteata): 100%; mortality at 500 g/ha (Spodoptera frugiperda): 100%; mortality at 4 mg/m2 ([4]; surface concentration 4 mg/m^2, glazed tile): 80 to 100%; mortality at 20 mg/m2 [4]: 80 to 100% |
| Cc1nc([C@H](C)NC(=O)c2cccc(Cl)n2)n(-c2ccc(C#N)cn2)n1 [II-51] |  | 100% | 100% | 90% | 100% |  |  | 100% |  |
| Cc1nc([C@H](C)NC(=O)c2cccc(Br)n2)n(-c2ccc(C#N)cn2)n1 [II-59] |  | 100% | 100% |  | 80% |  |  | 80% | mortality at 100 ppm (Ctenocephalides felis): 90% |
| C[C@H](NC(=O)c1cc(Cl)cc(C(F)(F)C(F)(F)F)c1)c1ncnn1-c1ncc(Cl)s1 [II-68] | 100% | 80% | 100% | 100% | 100% |  |  |  | pest or weed control at 160 µg/disc, 500 g/ha (Diabrotica balteata): 100%; mortality at 500 g/ha (Spodoptera frugiperda): 83% |
| C[C@H](NC(=O)c1cc(C(F)(F)F)cc(C(F)(F)F)c1)c1ncnn1-c1cc(C(=O)NCC(F)(F)F)ccn1 [II-87] | 100% |  |  | 80% |  | 100% | 100% |  |  |
| C[C@H](NC(=O)c1cc(C(F)(F)F)cc(C(F)(F)F)c1)c1ncnn1-c1cc(C(=O)NCC#N)ccn1 [II-89] | 100% | 80% |  | 80% |  |  | 100% |  | mortality at 0.8 ppm (Myzus persicae): 100% |
| CC(C)Oc1cc(Br)cc(C(=O)N[C@@H](C)c2ncnn2-c2ccc(C#N)cn2)c1 [II-108] | 100% | 80% |  | 90% |  | 100% |  | 80% |  |
| C[C@H](NC(=O)c1cc(Cl)cc(C(F)F)c1)c1ncnn1-c1ccc(C#N)cn1 [II- 12] |  |  |  |  |  |  |  |  | mortality at 20 mg/m2 [4]: 80 to 100% |
